Measured values: patent US20210254101A1, “METHODS FOR TREATING SPINAL CORD INJURY” (THE CHILDREN'S MEDICAL CENTER CORPORATION, priority 2018, published 2021)

Legend:
[1] = system: mice with staggered lesions; assay: Basso Mouse Scale (BMS) open field locomotion after staggered T7/T10 lateral hemisections; type: in vivo
Protocol: A staggered lesion paradigm was optimized in which two lateral hemisections were performed at the thoracic (T) 7 and T10 levels simultaneously (FIGS. 1A and 1B), similar to the model previously described (Courtine 2008; van den Brand, 2012). The T10 lesion is a lateral hemisection that ends at the spinal cord midline, while the T7 lesion, contralateral to the T10 lesion, extends slightly beyond the midline (FIG. 1A). With this double hemisection procedure, all descending axons passing T10 are severed, leaving only those crossing the midline between T7 and T10 intact (FIG. 1C). Indeed, by immunohistochemistry with anti-5-HT antibodies, which label serotonergic axons, descending serotonergic axons could be detected in the spinal cord segments between the lesions, but not in the lumbar spinal cord (FIG. 1C). Thus, a relay zone remains between and around the lesions (T7 and T10) where descending axons terminate, and where some propriospinal neurons maintain their connections with lumbar spinal neurons (see herein below).
This double hemisection SCI model was used to seek small molecule compounds that could reactivate the spared, but dormant, spinal connections by monitoring hindlimb motor performance during over-ground locomotion. To this end, daily compound treatment was started 1 week after injury and then monitored the BMS scores approximately 24 hours after the previous day's compound treatment on a weekly basis (FIG. 1D). Behavioral outcomes observed at these time points likely reflect sustained effects of the treatment, which are more clinically relevant.
Surgical Procedures. The procedure of T7 and T10 double lateral hemisection was similar to that described elsewhere (Courtine et al., 2008; van den Brand et al., 2012). Briefly, a midline incision was made over the thoracic vertebrae, followed by a T7-10 laminectomy. For the T7 right side over-hemisection, a scalpel and micro-scissors were carefully used to interrupt the bilateral dorsal column at T7, and ensured no sparing of ventral pathways on the contralateral side (FIG. 1A). For the T10 left hemisection, a scalpel and micro-scissors were carefully used to interrupt only the left side of the spinal cord until the midline. The muscle layers were then sutured, and the skin was secured with wound clips. All animals received post hoc histological analysis, and those with spared 5HT axons at the lumbar spinal cord (L2-5) were excluded for behavioral analysis (FIG. 7).
Behavioral Experiments. Motor function was evaluated with a locomotor open field rating scale on the Basso Mouse Scale (BMS). For transient pharmacological treatments, ten to fifteen minutes (van den Brand et al., 2012) prior to behavioral tests (grounding walking, all of which were performed individually), mice received systematic administration (i.p.) of the neural modulators listed above. It is important to note that with a single intraperitoneal injection, plasma CNO levels peak at 15 min and become very low by 2 h after injection (Guettier et al., 2009). For chronic pharmacological treatments, 24 hours prior to behavioral tests, mice received systematic administration of the compounds listed above. All behavioral tests were completed within 1-3 hours. For detailed hindlimb kinematic analysis, mice from different groups were placed in the MotoRater (TSE Systems, (Zorner et al., 2010)), and all kinematic analysis was performed based on data collected by the MotoRater.

[2] = system: mice with staggered lesions; assay: Cortical stimulation with EMG responses recorded in the TA muscle; type: in vivo, mouse; conditions: injured mice, compared to controls; FIG. 5D-5F
Protocol: To test directly if the treated spinal cord could more efficiently relay descending inputs to the lumbar spinal cord, cortical stimulation was performed and recorded EMG responses in the TA muscle (FIG. 5D). […] Thus, KCC2 treatment facilitates the transmission of descending inputs from the brain to the lumbar spinal cord.
For epidural stimulation and EMG recording, a customized head plate was secured over the skull, and a monopolar stimulation electrode (SSM33A05, World Precision Instruments, Inc.) was positioned epidurally over the representative hindlimb area of left motor cortex. A train of electrical stimuli (0.2 ms biphasic pulse, 100 ms pulse train, 20 Hz, 0.5-1.5 mA) was generated by pulse generator and isolator (Master 9 and Iso-Flex, A.M.P.I.), and delivered during quadrupedal standing in fully awake condition. Testing was performed without and with electrochemical stimulations. Peak-to-peak amplitude and latency of evoked responses were computed from EMG recordings of the right TA muscle.

neuropathic pain = conditions: animal models; Gagnon et al., 2013; Ferrini et al., 2017; Knabl et al., 2008; cited from earlier work
[3] = Side effects of compounds tested in the study; type: in vivo, mouse; conditions: even at high doses; data not shown

O=C1N=C(N2CCCCN2)S/C1=C\c1ccc(F)cc1OC(=O)N1CCCC1 [CLP290, [5-Fluoro-2-[(Z)-(2-hexahydropyridazin-1-yl-4-oxo-thiazol-5-ylidene)methyl]phenyl] pyrrolidine-1-carboxylate]
mice that recovered consistent hindpaw plantar placement and weight-bearing stepping ([1]; 9 weeks post staggered injury, FIG. 1F): 80% | additional functional recovery (BMS) from accompanying CLP290 treatment ([1]; Vgat-Cre mice with AAV-FLEX-KCC2, CLP290 versus vehicle, FIG. 10E): did not significantly enhance functional recovery at most time points | time BMS scores remained significantly higher than controls after stopping treatment ([1]; after withdrawal following 10-week treatment, FIG. 1G): 1-2 weeks | stepping ability / functional recovery (BMS), chronic compound treatment ([1]; daily i.p. treatment from 1 week after injury, BMS about 24 h after previous dose, FIG. 1E, 7A): induced sustained functional recovery | time at which functional recovery (BMS) first appeared ([1]; daily i.p. treatment started 1 week after injury, BMS about 24 h after previous dose, FIG. 1E): 4-5 weeks | time from which functional recovery (BMS) became significant ([1]; weeks after treatment, daily i.p. treatment, BMS about 24 h after previous dose, FIG. 1E): 7 weeks | amplitude of evoked EMG signals in TA muscle [2]: significantly increased | effect on neuropathic pain (neuropathic pain): effectively treat neuropathic pain in animal models | side effects [3]: negligible side effects even at high doses
